We go through two substances from patent publication EP4759825A1, “PEPTIDE FRAGMENT AND USE THEREOF” (Toagosei Co., Ltd., priority 2023, dated 2026).

The subject of this experiment is NSC-34 cells. Briefly: Evaluation of cell membrane permeability (flow cytometer, mean fluorescence intensity of cells cultured with the construct). The experiment is classed as cell-based, mouse. The conditions noted are these: mean fluorescence intensity (FL2 detector), 10 µM construct or FAM, 0.5% DMSO, 20 hours at 37°C, 5% CO2. As to the method: As the eukaryotic cells, NSC-34 cells (mouse motor neuron-like hybrid cell line) were used and the cell membrane permeability of the prepared construct was evaluated.
The NSC-34 cell was cultured in 10% fetal bovine serum (FBS)-containing Dulbecco's modified Eagle's medium (DMEM (Cat No. 044-29765, manufactured by FUJIFILM Wako Pure Chemical Corporation)), which is a culture medium.
The NSC-34 cell that adhered to a culture plate was cleaned with PBS and then, a 0.25%-trypsin/EDTA solution was added thereto, and incubation was performed for three minutes at 37°C. […]
Regarding the obtained cells (cell pellet), the cell membrane permeability was analyzed using a flow cytometer. […]
Using the aforementioned flow cytometer, gating based on forward scatter (FSC) and side scatter (SSC) was performed to set a gate about a cell group to be analyzed, and the fluorescence intensity was measured about the cell group in this gate. Note that the number of cells of the cell group to be analyzed was set to about 10000, and the analysis was performed. The fluorescence intensity was measured using a fluorescence detector FL2 of the flow cytometer (optimum detection wavelength around 543 nm) capable of detecting the fluorescence wavelength of FAM. […]
(A flow cytometer gives signals particle by particle.)

FAM = 5(6)-carboxyfluorescein

Substance “Ac-KKRTLRKSNRKKR-FAM (Ac-KKRTLRKSNRKKR-{FAM}) [Example 5]” gave an MFI of 22.4.

Take 5(6)-carboxyfluorescein [Example 6]: the MFI is listed as 8.83.
